In patent US11491120B2, “Pharmacological prophylactics against stress-induced affective disorders in females” (The Trustees of Columbia University in the City of New York, priority 2017, dated 2022):
Entries after “also recorded” stand apart in the source; their conditions may differ.

Test system: female 129S6/SvEv mice
Assay: Forced swim test (FST), immobility time, after stress
[1] = 0.025 mg/kg, 1 week prophylactic drug
[2] = 0.025 mg/kg, 1 week prophylactic drug, learned helplessness stress
[3] = 0.025 mg/kg, 3 day prophylactic drug
[4] = 0.075 mg/kg, 1 week prophylactic drug
[5] = 0.1 mg/kg, 1 week prophylactic drug
[6] = 0.3 mg/kg, 1 week prophylactic drug
[7] = 2.5 mg/kg, 1 week prophylactic drug
[8] = 10 mg/kg, 1 week prophylactic drug
[9] = Forced Swim Test Day 1, Dunnett test Sal vs. drug (0.025), 1 week prophylactic drug
[10] = Forced Swim Test Day 1, Dunnett test Sal vs. drug (0.075), 1 week prophylactic drug
[11] = Forced Swim Test Day 1, Dunnett test Sal vs. drug (0.1), 1 week prophylactic drug
[12] = Forced Swim Test Day 1, Dunnett test Sal vs. drug (0.3), 1 week prophylactic drug
[13] = Forced Swim Test Day 1, Dunnett test Sal vs. drug (2.5), 1 week prophylactic drug

N[C@@]1(c2ccccc2Cl)CCC[C@@H](O)C1=O [(2R,6R)-HNK, (2R,6R)-hydroxynorketamine]
* (significance), Sal vs. drug, Dunnett test: Immobility Time (min 1-6), Forced Swim Test Day 2 [1]: *** (*** p<0.0001) | * (significance), Sal vs. drug, Dunnett test: Immobility Time (min 4), Forced Swim Test Day 2 [1]: * (* p<0.05) | * (significance), Sal vs. drug, Dunnett test: Immobility Time (min 5), Forced Swim Test Day 2 [1]: * (* p<0.05) | * (significance), Sal vs. drug, Dunnett test: Immobility Time Average (min 3-6), Forced Swim Test Day 2 [1]: * (* p<0.05) | p, Sal vs. drug, Dunnett test: Immobility Time (min 1), Forced Swim Test Day 2 [1]: 0.0833 | p, Sal vs. drug, Dunnett test: Immobility Time (min 1-6), Forced Swim Test Day 2 [1]: 0.0001 | p, Sal vs. drug, Dunnett test: Immobility Time (min 2), Forced Swim Test Day 2 [1]: 0.5867 | p, Sal vs. drug, Dunnett test: Immobility Time (min 4), Forced Swim Test Day 2 [1]: 0.0383 | p, Sal vs. drug, Dunnett test: Immobility Time (min 5), Forced Swim Test Day 2 [1]: 0.0346 | p, Sal vs. drug, Dunnett test: Immobility Time (min 6), Forced Swim Test Day 2 [1]: 0.2356 | p, Sal vs. drug, Dunnett test: Immobility Time Average (min 3-6), Forced Swim Test Day 2 [1]: 0.0229 | * (significance), Sal vs. drug, Fisher's PLSD: Immobility Time Average (min 3-6), Forced Swim Test Day 2 [2]: *** (*** p<0.0001) | P, Sal vs. drug, Fisher's PLSD: Immobility Time Average (min 3-6), Forced Swim Test Day 2 [2]: <0.0001 | p, Sal vs. drug, t-test: Immobility Time Average (min 3-6), Forced Swim Test Day 2 (0.025 mg/kg, 24 hour prophylactic drug): 0.1367 | Immobility on FST Day 2 vs saline (0.025 mg/kg, 24 hours before CFC, female mice): not prophylactically effective when administered 24 h before a stressor; also recorded: did not alter immobility in the FST | * (significance), Sal vs. drug, Fisher's PLSD: Immobility Time (min 1-6), Forced Swim Test Day 2 [3]: *** (*** p<0.0001) | * (significance), Sal vs. drug, Fisher's PLSD: Immobility Time Average (min 3-6), Forced Swim Test Day 2 [3]: ** (** p<0.01) | p, Sal vs. drug, Fisher's PLSD: Immobility Time (min 1-6), Forced Swim Test Day 2 [3]: <0.0001 | p, Sal vs. drug, Fisher's PLSD: Immobility Time Average (min 3-6), Forced Swim Test Day 2 [3]: 0.0046 | p, Sal vs. drug, Dunnett test: Immobility Time (min 1), Forced Swim Test Day 2 [4]: 0.4238 | p, Sal vs. drug, Dunnett test: Immobility Time (min 1-6), Forced Swim Test Day 2 [4]: 0.5537 | p, Sal vs. drug, Dunnett test: Immobility Time (min 2), Forced Swim Test Day 2 [4]: 0.9312 | p, Sal vs. drug, Dunnett test: Immobility Time (min 4), Forced Swim Test Day 2 [4]: 0.9993 | p, Sal vs. drug, Dunnett test: Immobility Time (min 5), Forced Swim Test Day 2 [4]: >0.9999 | p, Sal vs. drug, Dunnett test: Immobility Time (min 6), Forced Swim Test Day 2 [4]: 0.9760 | p, Sal vs. drug, Dunnett test: Immobility Time Average (min 3-6), Forced Swim Test Day 2 [4]: 0.8615 | p, Sal vs. drug, Dunnett test: Immobility Time (min 1), Forced Swim Test Day 2 [5]: 0.9995 | p, Sal vs. drug, Dunnett test: Immobility Time (min 1-6), Forced Swim Test Day 2 [5]: 0.9871 | p, Sal vs. drug, Dunnett test: Immobility Time (min 2), Forced Swim Test Day 2 [5]: 0.2508 | p, Sal vs. drug, Dunnett test: Immobility Time (min 4), Forced Swim Test Day 2 [5]: 0.9994 | p, Sal vs. drug, Dunnett test: Immobility Time (min 5), Forced Swim Test Day 2 [5]: 0.8037 | p, Sal vs. drug, Dunnett test: Immobility Time (min 6), Forced Swim Test Day 2 [5]: 0.8172 | p, Sal vs. drug, Dunnett test: Immobility Time Average (min 3-6), Forced Swim Test Day 2 [5]: 0.9994 | p, Sal vs. drug, Dunnett test: Immobility Time (min 1), Forced Swim Test Day 2 [6]: 0.9998 | p, Sal vs. drug, Dunnett test: Immobility Time (min 1-6), Forced Swim Test Day 2 [6]: 0.9996 | p, Sal vs. drug, Dunnett test: Immobility Time (min 2), Forced Swim Test Day 2 [6]: 0.9999 | p, Sal vs. drug, Dunnett test: Immobility Time (min 4), Forced Swim Test Day 2 [6]: 0.9883 | p, Sal vs. drug, Dunnett test: Immobility Time (min 5), Forced Swim Test Day 2 [6]: 0.9991 | p, Sal vs. drug, Dunnett test: Immobility Time (min 6), Forced Swim Test Day 2 [6]: 0.9991 | p, Sal vs. drug, Dunnett test: Immobility Time Average (min 3-6), Forced Swim Test Day 2 [6]: 0.9994 | p, Sal vs. drug, Dunnett test: Immobility Time (min 1), Forced Swim Test Day 2 [7]: 0.4807 | p, Sal vs. drug, Dunnett test: Immobility Time (min 1-6), Forced Swim Test Day 2 [7]: 0.6589 | p, Sal vs. drug, Dunnett test: Immobility Time (min 2), Forced Swim Test Day 2 [7]: 0.9193 | p, Sal vs. drug, Dunnett test: Immobility Time (min 4), Forced Swim Test Day 2 [7]: 0.9991 | p, Sal vs. drug, Dunnett test: Immobility Time (min 5), Forced Swim Test Day 2 [7]: >0.9999 | p, Sal vs. drug, Dunnett test: Immobility Time (min 6), Forced Swim Test Day 2 [7]: 0.9995 | p, Sal vs. drug, Dunnett test: Immobility Time Average (min 3-6), Forced Swim Test Day 2 [7]: 0.9507 | p, Sal vs. drug, Dunnett test: Immobility Time (min 1), Forced Swim Test Day 2 [8]: 0.9997 | p, Sal vs. drug, Dunnett test: Immobility Time (min 1-6), Forced Swim Test Day 2 [8]: 0.9950 | p, Sal vs. drug, Dunnett test: Immobility Time (min 2), Forced Swim Test Day 2 [8]: 0.9993 | p, Sal vs. drug, Dunnett test: Immobility Time (min 4), Forced Swim Test Day 2 [8]: 0.9955 | p, Sal vs. drug, Dunnett test: Immobility Time (min 5), Forced Swim Test Day 2 [8]: 0.9991 | p, Sal vs. drug, Dunnett test: Immobility Time (min 6), Forced Swim Test Day 2 [8]: 0.9999 | p, Sal vs. drug, Dunnett test: Immobility Time Average (min 3-6), Forced Swim Test Day 2 [8]: 0.9997 | * (significance), Immobility Time (min 1-6) [9]: ** (** p<0.01) | p, Immobility Time (min 1) [9]: 0.9996 | p, Immobility Time (min 1-6) [9]: 0.0090 | p, Immobility Time (min 3) [9]: 0.9637 | p, Immobility Time (min 4) [9]: 0.8106 | p, Immobility Time (min 5) [9]: 0.8892 | p, Immobility Time (min 6) [9]: 0.6406 | p, Immobility Time Average (min 3-6) [9]: 0.7004 | * (significance), Immobility Time (min 1) [10]: ** (** p<0.01) | p, Immobility Time (min 1) [10]: 0.0017 | p, Immobility Time (min 1-6) [10]: 0.2188 | p, Immobility Time (min 3) [10]: 0.9250 | p, Immobility Time (min 4) [10]: 0.9750 | p, Immobility Time (min 5) [10]: 0.8877 | p, Immobility Time (min 6) [10]: 0.9994 | p, Immobility Time Average (min 3-6) [10]: 0.9526 | p, Immobility Time (min 1) [11]: 0.9996 | p, Immobility Time (min 1-6) [11]: 0.0673 | p, Immobility Time (min 3) [11]: 0.4888 | p, Immobility Time (min 4) [11]: 0.3257 | p, Immobility Time (min 5) [11]: 0.2856 | p, Immobility Time (min 6) [11]: 0.9218 | p, Immobility Time Average (min 3-6) [11]: 0.3240 | p, Immobility Time (min 1) [12]: 0.0586 | p, Immobility Time (min 1-6) [12]: >0.9999 | p, Immobility Time (min 3) [12]: >0.9999 | p, Immobility Time (min 4) [12]: 0.7424 | p, Immobility Time (min 5) [12]: 0.3614 | p, Immobility Time (min 6) [12]: 0.9996 | p, Immobility Time Average (min 3-6) [12]: 0.9455 | * (significance), Immobility Time (min 1) [13]: ** (** p<0.01) | p, Immobility Time (min 1) [13]: 0.0026 | p, Immobility Time (min 1-6) [13]: 0.7127
